SMILES strings stand for the structures. Where two headings read alike, the source gives them in different places.

The target in assay [1] is T1, glucagon receptor (GCGR) overexpressed CHO-K1 cells or human primary hepatocytes (Homo sapiens, UniProt P47871).
T1 construct: expressed in transfected cells; host or cells: GCGR overexpressed CHO-K1 cells or human primary hepatocytes (endogenous receptor)
The assay is described as follows: Glucagon cAMP inhibition assay (Cisbio cAMP Dynamic 2 HTRF). The format is cell-based. The method, then:
Glucagon cAMP Inhibition Assay
Downstream secondary messenger cAMP induced by glucagon was detected by Cisbio cAMP Dynamic 2 kit. Testing compounds were each prepared as a dimethyl sulfoxide (DMSO) solution at the concentration of 10 mM. To evaluate the potency of compounds in inhibiting the cAMP production, glucagon receptor (GCGR) overexpressed CHO-K1 cells or human primary hepatocytes were treated with compounds with a serial dilution. The cells were re-suspended in Hank's Balanced Salt solution (HBSS) contained 0.1% (w/v) bovine serum albumin and 800 nM 3-isobutyl-1-methylxanthine (IBMX) and seeded into low volume, 384 wells white plate. The diluted compounds were then added into the plate for 30 minutes pre-incubation where the final DMSO concentration was 1%. The cells were stimulated with glucagon at the concentration equaled to EC50 (an indicium of the concentration of a drug that gives half-maximal response) for 30 minutes at room temperature. After incubation, lysis buffer contain cAMP antibody and fluorescence acceptor were added into each well for additional 60 minutes incubation. Results were recorded by Molecular Devices SpectraMax Paradigm with the HTRF Detection Cartridges and the IC50 value of each compound in inhibiting the cAMP production was calculated with non-linear regression based on the amount of cAMP production.

Assay [2] deals with T2, glucagon receptor (GCGR) (Homo sapiens, UniProt P47871).
T2 construct: expressed in transfected cells; host or cells: CHO-K1 cells overexpressing GCGR (membrane fractions)
T2 sequence (P47871 26-477): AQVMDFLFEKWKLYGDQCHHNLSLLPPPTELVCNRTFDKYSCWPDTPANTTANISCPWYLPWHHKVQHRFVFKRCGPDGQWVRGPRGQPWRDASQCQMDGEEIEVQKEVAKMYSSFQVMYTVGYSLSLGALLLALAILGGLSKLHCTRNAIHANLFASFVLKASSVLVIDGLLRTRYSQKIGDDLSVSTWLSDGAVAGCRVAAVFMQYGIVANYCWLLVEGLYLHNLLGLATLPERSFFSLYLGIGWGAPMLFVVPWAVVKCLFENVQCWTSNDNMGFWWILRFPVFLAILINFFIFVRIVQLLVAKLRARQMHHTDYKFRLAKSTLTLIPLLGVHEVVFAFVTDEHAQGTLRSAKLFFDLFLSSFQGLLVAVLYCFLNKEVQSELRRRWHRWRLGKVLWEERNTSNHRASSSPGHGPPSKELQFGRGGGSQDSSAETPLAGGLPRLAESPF
The assay is described as follows: I125-glucagon binding assay (competition, GCGR membrane fractions). The protocol:
I^125-Glucagon Binding Assay
The binding affinity of each compound was evaluated by a competition assay with I^125-glucagon. GCGR membrane fractions were obtained from GCGR overexpressed CHO-K1 cells as a stock of 1 mg/ml concentration. To evaluate the IC50 of compounds binding to GCGR, GCGR membrane fractions were treated with compounds with a serial dilution. The membrane fractions were diluted to 7.5 microgram per well in 70 microliter assay buffer contained 50 mM Tris pH 7.4 and 0.5% (w/v) bovine serum albumin and added into 96 wells plate. The membrane fractions were then mixed with 10 microliter diluted compounds. After 5 minutes pre-incubation, 20 microliter I^125 labeled glucagon (Perkin Elmer) was added into each well at the final concentration of 0.0625 nM. The assay mixtures were incubated at 25° C. for 30 minutes and then transferred onto the Millipore MultiScreen GF/B Plate coated with 0.5% (w/v) Polyethyleneimine. The filter plate was washed with wash buffer contained 50 mM Tris pH 7.4 for 2 times, 300 microliter each time. The residual isotope was detected by Hidex CHAMELEON V micro-beta counter and the IC50 value of each compound binding to GCGR was calculated with non-linear regression.

Where [3] appears, read: inhibition of glucagon (EC50 concentration) induced cAMP production.
[4] abbreviates: competition with I125-glucagon 0.0625 nM, membrane fractions of GCGR overexpressed CHO-K1 cells.

T1 sequence (P47871 26-477): as above

As for `CC(C)COC[C@H](Cc1ccc(-c2cc(F)c(F)c(F)c2)cc1)Nc1ccc(C(=O)NCCC(=O)O)cc1` [Compound 19-31, (S)-3-(4-((1-isobutoxy-3-(3′,4′,5′-trifluoro-[1,1′-biphenyl]-4-yl)propan-2-yl)amino)benzamido)propanoic Acid], the “IC50 cAMP” value in assay [1] was 1.341 µM. In assay [2], this compound showed an IC50 of 0.5 µM. Regarding `CC(C)C[C@@H](COc1ccc(-c2ccc(Cl)cc2Cl)c(F)c1)Nc1ccc(C(=O)NCCC(=O)O)cc1` [Compound 8-19, (S)-3-(4-((1-((2′,4′-dichloro-2-fluoro-[1,1′-biphenyl]-4-yl)oxy)-4-methylpentan-2-yl)amino)benzamido)propanoic Acid], the “IC50 cAMP” value in assay [1] (setting [3]) worked out at 0.182 µM. Moreover, the IC50 in assay [2] (setting [4]) turned out to be 0.101 µM. For `O=C(O)CCNC(=O)c1ccc(N[C@H](COc2ccc(-c3cc4ccccc4o3)cn2)c2ccc(-c3ccc(C(F)(F)F)cc3)cc2)cc1` [Compound 15-29, (S)-3-(4-((2-((5-(benzofuran-2-yl)pyridin-2-yl)oxy)-1-(4′-(trifluoromethyl)-[1,1′-biphenyl]-4-yl)ethyl)amino)benzamido)propanoic Acid], the “IC50 cAMP” value in assay [1] amounted to 0.107 µM. In addition, the IC50 in assay [2] worked out at 0.02 µM. The corresponding values for `CC(C)C[C@H](Nc1ccc(C(=O)NCCC(=O)O)cc1)C(=O)Nc1ccc(-c2ccc(Cl)cc2Cl)cc1` [Compound 23-1, (S)-3-(4-((1-((2′,4′-dichloro-[1,1′-biphenyl]-4-yl)amino)-4-methyl-1-oxopentan-2-yl)amino)benzamido)propanoic Acid] are 3.6 µM and 0.087 µM. Turning to `CCCC[C@@H](COc1ccc(-c2ccc(C(F)(F)F)cc2Cl)cc1)Nc1ccc(C(=O)NCc2nnn[nH]2)cc1` [Compound 1-20, (S)—N-((1H-tetrazol-5-yl)methyl)-4-((1-((2′-chloro-4′-(trifluoromethyl)-[1,1′-biphenyl]-4-yl)oxy)hexan-2-yl)amino)benzamide], the “IC50 cAMP” value in assay [1] (setting [3]) came to 0.524 µM. This compound yielded an IC50 in assay [2] (setting [4]) of 0.096 µM.

Regarding `O=C(NCCS(=O)(=O)O)c1ccc(N[C@@H](Cc2ccccc2)C(=O)Nc2ccc(-c3cc4ccccc4o3)cc2)cc1` [Compound 23-24, (S)-2-(4-((1-((4-(benzofuran-2-yl)phenyl)amino)-1-oxo-3-phenylpropan-2-yl)amino)benzamido)ethane-1-sulfonic Acid], the “IC50 cAMP” value in assay [1] (uM) is over 10 µM. In addition, in assay [2] (uM), the IC50 is over 10 µM.

Take `CC[C@H](C)[C@@H](COc1ccc(-c2ccc(F)cc2F)cc1)Nc1ccc(C(=O)NCCC(=O)O)cc1` [Compound 1-26]: the “IC50 cAMP” value in assay [1] (setting [3]) is 0.213 µM.

`CC[C@H](C)[C@@H](COc1ccc(-c2ccc(C(F)(F)F)cc2Cl)c(C)n1)Nc1ccc(C(=O)NCCC(=O)O)cc1` [Compound 18-3, 3-(4-(((2S,3S)-1-((5-(2-chloro-4-(trifluoromethyl)phenyl)-6-methylpyridin-2-yl)oxy)-3-methylpentan-2-yl)amino)benzamido)propanoic Acid]: the “IC50 cAMP” value in assay [1] turned out to be 0.075 µM. The IC50 in assay [2] came to 0.062 µM. On the same counts, the results for `Cc1nc(OC[C@H](CC(C)C)Nc2ccc(C(=O)NCCC(=O)O)cc2)ccc1-c1cc2ccccc2o1` [Compound 18-9, (S)-3-(4-((1-((5-(benzofuran-2-yl)-6-methylpyridin-2-yl)oxy)-4-methylpentan-2-yl)amino)benzamido)propanoic Acid] are 0.4299 µM and 0.207 µM. On to `CCCC[C@@H](COc1ccc(-c2ccc(C(F)(F)F)cc2F)c(F)c1)Nc1ccc(C(=O)NCCC(=O)O)cc1` [Compound 8-17, (S)-3-(4-((1-((2,2′-difluoro-4′-(trifluoromethyl)-[1,1′-biphenyl]-4-yl)oxy)hexan-2-yl)amino)benzamido)propanoic Acid], for which the “IC50 cAMP” value in assay [1] (setting [3]) was 0.2276 µM. Besides, in assay [2] (setting [4]), the IC50 stood at 0.308 µM. For `CCC(C)[C@@H](COc1nnc(-c2ccc(C(C)(C)C)cc2)o1)Nc1ccc(C(=O)NCCC(=O)O)cc1` (stereo partly drawn) [Compound 22-9, 3-(4-(((2S)-1-((5-(4-(tert-butyl)phenyl)-1,3,4-oxadiazol-2-yl)oxy)-3-methylpentan-2-yl)amino)benzamido)propanoic Acid], in assay [2], the IC50 is over 30 µM.

Regarding `CC[C@H](C)[C@@H](COc1nnc(-c2ccc(C(F)(F)F)cc2Cl)o1)Nc1ccc(C(=O)NCCC(=O)O)cc1` [Compound 22-19], the “IC50 cAMP” value in assay [1] is over 30 µM. Moreover, the IC50 in assay [2] was over 30 µM. Take `CC(C)NC(=O)[C@H](Cc1cccc2ccccc12)Nc1ccc(C(=O)NCCC(=O)O)cc1` [Compound 24-12, (S)-3-(4-((1-(isopropylamino)-3-(naphthalen-1-yl)-1-oxopropan-2-yl)amino)benzamido)propanoic Acid]: the “IC50 cAMP” value in assay [1] (uM) was over 10 µM. In the case of `CCCOC[C@H](Cc1ccc(-c2ccc(Cl)cc2Cl)cc1)Nc1ccc(C(=O)NCCC(=O)O)cc1` [Compound 19-15, (S)-3-(4-((1-(2′,4′-dichloro-[1,1′-biphenyl]-4-yl)-3-propoxypropan-2-yl)amino)benzamido)propanoic Acid], the “IC50 cAMP” value in assay [1] is 2.029 µM. Further, in assay [2], the IC50 came out at 2.67 µM. For `CCOC(=O)CCNC(=O)c1ccc(N[C@@H](Cc2ccc3ccccc3c2)C(=O)NC(C)C)cc1` [Compound 24-13, Ethyl (S)-3-(4-((1-(isopropylamino)-3-(naphthalen-2-yl)-1-oxopropan-2-yl)amino)benzamido)propanoate], the “IC50 cAMP” value in assay [1] (uM) is over 10 µM.

As to `CCC(C)[C@@H](COc1cnc(-c2ccc(C(F)(F)F)cc2Cl)nc1)Nc1ccc(C(=O)NCCC(=O)O)cc1` (stereo partly drawn) [Compound 12-8, 3-(4-(((2S)-1-((2-(2-chloro-4-(trifluoromethyl)phenyl)pyrimidin-5-yl)oxy)-3-methylpentan-2-yl)amino)benzamido)propanoic Acid], in assay [1] (setting [3]), the “IC50 cAMP” value turned out to be 2.719 µM. Also, the IC50 in assay [2] (setting [4]) is 0.331 µM.

Consider `CC(C)[C@H](Nc1ccc(C(=O)NCCS(=O)(=O)O)cc1)C(=O)Nc1ccc(-c2cc3ccccc3o2)cc1` [Compound 23-34, (S)-2-(4-((1-((4-(benzofuran-2-yl)phenyl)amino)-3-methyl-1-oxobutan-2-yl)amino)benzamido)ethane-1-sulfonic Acid], for which, in assay [1], the “IC50 cAMP” value was determined as 75.611 µM. The same compound registered an IC50 in assay [2] of 2.57 µM. Consider `CCOC(=O)CCNC(=O)c1ccc(N[C@@H](Cc2c[nH]c3ccccc23)C(=O)Nc2ccc(-c3cc4ccccc4o3)cc2)cc1` [Compound 23-27, Ethyl (S)-3-(4-((1-((4-(benzofuran-2-yl)phenyl)amino)-3-(1H-indol-3-yl)-1-oxopropan-2-yl)amino)benzamido)propanoate], for which the “IC50 cAMP” value in assay [1] worked out at 34.6 µM. In the case of `CC(C)NC(=O)[C@H](Cc1ccc2ccccc2c1)Nc1ccc(C(=O)NCCC(=O)O)cc1` [Compound 24-14, (S)-3-(4-((1-(isopropylamino)-3-(naphthalen-2-yl)-1-oxopropan-2-yl)amino)benzamido)propanoic Acid], the “IC50 cAMP” value in assay [1] (uM) is over 10 µM. Take `CCOC(=O)CCNC(=O)c1ccc(N[C@@H](Cc2cccc3ccccc23)C(=O)NC(C)C)cc1` [Compound 24-11, Ethyl (S)-3-(4-((1-(isopropylamino)-3-(naphthalen-1-yl)-1-oxopropan-2-yl)amino)benzamido)propanoate]: in assay [1] (uM), the “IC50 cAMP” value was over 10 µM. In the case of `Cc1cc(C)c(-c2ccc(C[C@H](Nc3ccc(C(=O)NCCS(=O)(=O)O)cc3)C(=O)Nc3ccc(C(C)(C)C)cc3)cc2)c(C)c1` [Compound 23-26, (S)-2-(4-((1-((4-(tert-butyl)phenyl)amino)-1-oxo-3-(2′,4′,6′-trimethyl-[1,1′-biphenyl]-4-yl)propan-2-yl)amino)benzamido)ethane-1-sulfonic Acid], the “IC50 cAMP” value in assay [1] turned out to be 39.3 µM.

As for `CC[C@H](C)[C@@H](COc1ccc(-c2nnc(C(C)(C)C)o2)c(OC)c1)Nc1ccc(C(=O)NCCC(=O)O)cc1` [Compound 13-13, 3-(4-(((2S,3S)-1-(4-(5-(tert-butyl)-1,3,4-oxadiazol-2-yl)-3-methoxyphenoxy)-3-methylpentan-2-yl)amino)benzamido)propanoic Acid], the IC50 in assay [2] (setting [4]) is 0.883 µM. In the case of `CCC(C)[C@@H](COc1nnc(-c2ccc(OC(F)(F)F)cc2)o1)Nc1ccc(C(=O)NCCC(=O)O)cc1` (stereo partly drawn) [Compound 22-8, 3-(4-(((2S)-3-methyl-1-((5-(4-(trifluoromethoxy)phenyl)-1,3,4-oxadiazol-2-yl)oxy)pentan-2-yl)amino)benzamido)propanoic Acid], in assay [2], the IC50 is over 30 µM.
